Calls of active or inactive are those of the source. The rule behind the calls is not given here.
Molecular target: Prostaglandin E2 receptor EP2 subtype (Homo sapiens) (UniProt P43116)
Assay: EP2 receptor modulators, dose response, cell-based, human EP2, PGE2 EC50 shift (AID 1421)
Conditions: EP2-expressing cells, PGE2 EC50 shift by compound

Sequence of Prostaglandin E2 receptor EP2 subtype (Homo sapiens) (P43116 whole entry, looked up): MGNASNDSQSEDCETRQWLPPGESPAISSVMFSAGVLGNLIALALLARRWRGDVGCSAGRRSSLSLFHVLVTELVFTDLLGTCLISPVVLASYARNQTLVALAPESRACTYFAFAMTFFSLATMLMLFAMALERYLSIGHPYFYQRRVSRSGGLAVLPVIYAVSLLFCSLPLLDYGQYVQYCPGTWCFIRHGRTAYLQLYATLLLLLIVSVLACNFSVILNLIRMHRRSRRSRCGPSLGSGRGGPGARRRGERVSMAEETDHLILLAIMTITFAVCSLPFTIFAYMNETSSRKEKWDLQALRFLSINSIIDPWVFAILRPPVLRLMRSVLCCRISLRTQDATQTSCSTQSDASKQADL

Row | Structure (SMILES) | outcome
1 | CCOc1cc(-c2noc(-c3ccncc3)n2)cc(Br)c1OC | active
2 | COc1cc(-c2nc(-c3cccc(C(F)(F)F)c3)no2)cc(OC)c1OC | active
3 | CCOCC(=O)Nc1sc2c(c1C(=O)OCC)CCCC2 | active
4 | O=C1CCC(c2ccccc2)=NN1Cc1c(F)cccc1Cl | active
5 | COc1ccc(S(=O)(=O)N2c3cc(C)ccc3OCC2C(C)(C)C)cc1 (stereo not given) | active
6 | CC(C)CCn1c(=O)c2ccccc2c2ccccc2c1=O | active
7 | C/C(CCc1oc2ccc(Cl)cc2c1-c1ccc(C)o1)=N\O | active
8 | O=C(NCc1ccc(F)cc1)c1ccccc1OCc1ccccc1 | active
9 | CC(C)Sc1cc(N2CCOCC2)nc(-c2ccccc2)n1 | active

Same assay, conditions: EP2-expressing cells, PGE2 EC50 shift by compound; measured here: PGE2 EC50 at 6.7 uM compound

Row | Structure (SMILES) | PGE2 EC50 with compound [nM]
10 | Cc1cc([N+](=O)[O-])c(C)c(Br)c1C | 1.11
11 | Cc1cc(OCC(=O)OC(C)C)c2c3c(c(=O)oc2c1)CCCC3 | 0.81
12 | Cc1cc(C)c(C#N)c(Oc2ccccc2Br)n1 | 1.01
13 | COc1ccc(-c2cc(-c3n[nH]c(=S)n3-c3cccc4ccccc34)[nH]n2)cc1 | 1.74
14 | COc1ccc(CN2C(=O)CN=C2Nc2cc(C)ccc2C)cc1 | 1.04
15 | CCOC(=O)c1ccc2nc(C(F)(F)F)[nH]c(=O)c2c1 | 1.19
16 | CCOc1ccccc1Cn1c(=O)sc2ccccc21 | 2.65
17 | Cc1cc(N)c2cc(NC(=O)Nc3ccc4nc(C)cc(N)c4c3)ccc2n1 | 2.6
18 | N#CCCSc1ncnc2c1oc1ccccc12 | 1.52
19 | CCN(CC)C(=O)CN(c1cc2c(cc1OC)oc1ccccc12)S(=O)(=O)c1ccc(C)cc1 | 1.2
20 | CCCn1c(Nc2nc3ccccc3n2C)nc2ccccc21 | 1.02
21 | O=c1c2oc3ccccc3c2[nH]c(=S)n1-c1ccccc1 | 1.25
22 | CCOc1cc(-c2noc(-c3ccncc3)n2)cc(Br)c1OC | 0.84
23 | O=c1[nH]ncc2c3ccccc3n(Cc3cccc(Cl)c3)c12 | 0.98
24 | COc1ccc(N2CCN(c3nc4c(c(=O)n(C)c(=O)n4C)n3Cc3ccccc3)CC2)cc1 | 0.92
25 | CO/N=C/C(=N\Nc1ccccc1)C(=O)c1ccccc1 | 0.59
26 | COc1cc(-c2nc(-c3cccc(C(F)(F)F)c3)no2)cc(OC)c1OC | 0.89
27 | O=C(O)/C=C/c1ccccc1Oc1ccc(Cl)cc1Cl | 1.21
28 | O=C(N/N=C/c1ccc[nH]1)c1ccccc1OCc1ccccc1Cl | 2.65
29 | CCOC(=O)c1c(CC(C)C)csc1/N=C/C1C(=O)CCCC1=O | 1
30 | O=c1cc(N2CCCCC2)c(-c2ccccc2)nn1Cc1ccccc1Cl | 0.65
31 | C=CCSc1nccc(-c2cc(Cl)sc2Cl)n1 | 1.07
32 | O=C(Nc1ccccc1Oc1ccccc1)c1ccc(Br)o1 | 1.05
33 | Cc1noc(C)c1CSc1ncnc2sc3c(c12)CCC(C)C3 (stereo not given) | 1.06
34 | CCSc1nnc(-c2ccc(Cl)cc2)c2ccccc12 | 0.76
35 | O=c1c2cn[nH]c2nc(SCc2ccccc2F)n1-c1ccc(Br)cc1 | 0.77

Row | Structure (SMILES) | PGE2 EC50 with compound [nM]
36 | O=C(CNC1CCCCC1)N1CCC2(CC1)OCCO2 | 1.35
37 | CSc1nnc(-c2ccc(F)cc2)o1 | 1.71
38 | CCN(CC)c1ccc(/C=C2\C(=O)c3ccc(C(=O)O)cc3C2=O)cc1 | 1.04
39 | Cc1ccc2c3c(cccc13)-c1ccccc1C2=O | 0.86
40 | C#CCN1C(C)=C(C(=O)OC)C(c2cccc([N+](=O)[O-])c2)C(C(=O)OCC)=C1C (stereo not given) | 2.62
41 | Cc1nc2ccccc2nc1SCC(=O)N1CCC(C)CC1 | 2.77
42 | CC1=NN(c2ccc(S(=O)(=O)O)cc2)C(=O)/C1=C\c1ccc(Cl)cc1 | 1.07
43 | CN1C(=O)/C(=C/c2ccccc2OCc2cccc(F)c2)N(C)C1=S | 0.81
44 | COc1ccc(-n2c(COc3cccc4ccccc34)nnc2SCC#N)cc1 | 1.19
45 | CCOC(=O)c1sc(NC(=O)C(CC)OC(=O)C(CC(C)C)NC(=O)c2ccccc2)nc1C (stereo not given) | 1.22
46 | CCOC(=O)CC(=O)CSc1ncnc2c1oc1ccccc12 | 2.64
47 | Nc1cccc(OCc2nc(N)nc(N)c2-c2ccc(Cl)cc2)c1 | 1.24
48 | CCOCC(=O)Nc1sc2c(c1C(=O)OCC)CCCC2 | 1.18
49 | Cc1noc(C)c1CSc1nc2ccccc2c(=O)n1-c1ccc(Cl)cc1 | 0.83
50 | c1ccc(Cc2nnc(Sc3ccccc3)c3ccccc23)cc1 | 2.76
51 | CCCCCCn1c(SCC(C)C)nc2c1c(=O)[nH]c(=O)n2C | 1.08
52 | CCC(C)(C(=O)NC1CCCCC1)N(C(=O)C1CCC(=O)N1)c1ccccc1 (stereo not given) | 1.17
53 | N#Cc1c(-c2ccco2)nc(SCC(=O)Nc2cccc(Cl)c2)[nH]c1=O | 1.15
54 | CCOc1ccccc1NC(=O)c1ccccc1-c1nc(-c2ccccc2)no1 | 1.14
55 | O=C1CCC(c2ccccc2)=NN1Cc1c(F)cccc1Cl | 0.9
56 | CCc1ccccc1NC(=O)/C(=C/c1ccco1)c1ccccc1 | 1.58
57 | CC1(C)Oc2ccc(C(=O)N3CCOCC3)cc2N(CC(=O)N2CCOCC2)C1=O | 1.69
58 | COc1ccc(N2C(=O)N(Cc3ccc(C)cc3)c3ccccc3S2(=O)=O)cc1 | 2.81
59 | Cc1cccc(C)c1N1CCN(c2ccc3nnc(C(F)(F)F)n3n2)CC1 | 0.52
60 | COc1ccc(S(=O)(=O)N2c3cc(C)ccc3OCC2C(C)(C)C)cc1 (stereo not given) | 0.75
61 | Oc1ccc(/C=N/N2CCN(C3c4ccccc4-c4ccccc43)CC2)c(O)c1 | 2.52

Row | Structure (SMILES) | PGE2 EC50 with compound [nM]
62 | Fc1ccc(C(c2ccc(F)cc2)N2CCN(C/C=C/c3ccccc3)CC2)cc1 | 1.19
63 | CCOC(=O)c1c(-c2cccs2)csc1NC(=O)CN1CCOCC1 | 0.99
64 | CC(C)CCn1c(=O)c2ccccc2c2ccccc2c1=O | 1.07
65 | O=C(O)CCCN1C(=O)/C(=C\c2ccco2)SC1=S | 1.07
66 | C=CCc1cc(C=O)cc(OCC)c1OCc1ccc(Cl)cc1 | 1.29
67 | CCC(Sc1nc(-c2ccccc2)c(C#N)c(=O)[nH]1)C(=O)Nc1cc(C)on1 (stereo not given) | 1.38
68 | N#Cc1c(NC(=O)CSc2n[nH]c(Cc3ccccc3)n2)oc(-c2ccccc2)c1-c1ccccc1 | 1.4
69 | Cc1cccc(OC(=O)c2sc(Cl)nc2C)c1 | 0.83
70 | O=c1c2ccccc2nc(/C=C/c2ccccc2)n1CCc1ccccc1 | 0.92
71 | C/C(CCc1oc2ccc(Cl)cc2c1-c1ccc(C)o1)=N\O | 0.81
72 | O=C(c1ccc(Cl)cc1)c1oc2ccccc2c1CS(=O)(=O)c1ccccc1 | 2.88
73 | CCN(c1cccc(C)c1)S(=O)(=O)c1ccc2c3c(cccc13)C(=O)N2 | 0.53
74 | S=c1[nH]cc(-c2ccccc2)n1-c1ccccc1 | 1.48
75 | Cc1cc(SCC(=O)NCCC2=CCCCC2)nc2ccccc12 | 2.66
76 | O=C(NCc1ccc(F)cc1)c1ccccc1OCc1ccccc1 | 1.03
77 | CC(C)n1c2ccccc2c2nc3ccccc3nc21 | 2.59
78 | CCCn1c(-c2cccs2)nc2c1c(=O)[nH]c(=O)n2Cc1ccccc1 | 2.78
79 | Cc1cccc(/C=C/c2nc3ccccc3c(=O)n2Cc2ccccc2)c1 | 2.67
80 | OC1(c2ccc(Cl)cc2)CN(c2ccccc2)C2=[N+]1CCS2 (stereo not given) | 1.16
81 | CC(C)Sc1cc(N2CCOCC2)nc(-c2ccccc2)n1 | 1.22
82 | Cc1cc(SCC(=O)Nc2cccnc2Cl)nc2ccccc12 | 0.87
83 | CCOc1ccc(OCC)c(NC(=O)CN2CCN(c3ccc(C)cc3C)CC2)c1 | 0.88
84 | c1cncc(-c2nc(N3CCOCC3)c3c4c(sc3n2)CCC4)c1 | 1.15
85 | CCOC(=O)c1c(NC(=O)CN2CCCCC2)sc2c1CCN(C(=O)OCC)C2 | 0.9
